Measurements published in patent US8497278B2, “Imidazo[1,2-a]pyridine compounds” (priority 2008, dated 2013).

How the values were obtained:
Swiss Webster (CFW) mice = assay: Four Plate Test (FPT); format: in vivo; conditions: mouse, 30 min before test, 2 min session
Description: Four Plate Test (FPT) Protocol: The four plate test (FPT) is an animal model of anxiety in which simple ongoing behavior (exploration of novel surroundings) is suppressed by the delivery of mild electric foot-shock contingent to quadrant crossing (Aron, et al., 1971). Clinically effective classes of anxiolytic compounds such as benzodiazepines, selective serotonin reuptake inhibitors, or 5-HT1A receptor agonists produce a marked anti-punishment effect (an increase in punished crossings), which is thought to indicate anxiolytic activity (Aron, et al., 1971; Bourin, et al., 1992; Hascoet, et al., 2000; Ring, et al., 2006). The four plate apparatus (Bioseb, Chaville France) consists of a cage (18×25×16 cm) floored by four identical rectangular metal plates (8×11 cm) separated from one another by a gap of 4 mm. The plates are connected to a shocker unit that can generate electric foot shocks.
Male Swiss Webster (CFW) mice from Charles River (Wilmington, Mass.) were used for the FPT. Mice were received at 3-weeks of age. Upon receipt, mice were assigned unique identification numbers (tail marked) and were group housed with 4 mice per cage in mouse ventilated racks. All animals remained housed in groups of four during the remainder of the study. All mice were acclimated to the colony room for at least one week prior to testing and were subsequently tested at an average age of 4 weeks of age. During the period of acclimation, mice […] were examined on a regular basis, handled, and weighed to assure adequate healtH, D and suitability. Animals were maintained on a 12/12 light/dark cycle. The room temperature was maintained between 20 and 23° C. with a relative humidity maintained between 30% and 70%. Chow and water were provided ad libitum for the duration of the study. In each test, animals were randomly assigned across treatment groups. Alprazolam (0.3 mg/kg) was used as the positive control. Compounds of the present invention, vehicle (45% hydroxypropyl beta-cyclodextrin) and alprazolam were administered orally to all groups (n=10 mice per group) 30 minutes prior to behavioral testing. Following pretreatment, mice were gently placed in the four plate chamber and allowed to explore the enclosure for 18 seconds. After the exploration period, every time the mouse crossed from one plate to another, the experimenter, blind to the dosing conditions, administered a mild electric foot-shock, and referred to as a punished crossing. The intensity and duration of the foot-shock were 0.5 mA for 0.5 seconds. The number of punished crossings was recorded during the 2 min test session. The plates were thoroughly cleaned with 70% ethanol immediately after each mouse. All data were analyzed using an analysis of variance (ANOVA) followed by Fisher's PLSD post hoc test. An effect was considered significance if p<0.05. Statistical outliers above or below 2 standard deviations from the mean in any of the […] were removed from the final analysis.

[1] = molecular target: T1, α1 subtype containing GABA-A receptors (Homo sapiens, UniProt P14867+P18507); assay: Two-electrode voltage clamp electrophysiology in Xenopus oocytes, potentiation of GABA EC20 response, α1; format: cell-based; conditions: 100 nM compound; for activation at 0.1 µM: read-out: Percentage of potentiation alpha1
T1 construct: expressed in transfected cells; host or cells: Xenopus laevis oocytes, cRNA injected
Outline: (§1)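 Potentiation of the GABA EC20 current by 100 nM compound is the read-out, recorded by two-electrode voltage clamp at −80 mV in oocytes carrying human α1, α2, α3 or α5 with β3 and γ2L. Baseline came from three 20-s applications of 60 μM GABA.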

[2] = molecular target: T2, α2 subtype containing GABA-A receptors (Homo sapiens, UniProt P18507+P47869); assay: Two-electrode voltage clamp electrophysiology in Xenopus oocytes, potentiation of GABA EC20 response, α2; format: cell-based; conditions: 100 nM compound; for activation at 0.1 µM: read-out: Percentage of potentiation alpha2
T2 construct: expressed in transfected cells; host or cells: Xenopus laevis oocytes, cRNA injected
Outline: as §1

T1 sequence (P14867 28-456): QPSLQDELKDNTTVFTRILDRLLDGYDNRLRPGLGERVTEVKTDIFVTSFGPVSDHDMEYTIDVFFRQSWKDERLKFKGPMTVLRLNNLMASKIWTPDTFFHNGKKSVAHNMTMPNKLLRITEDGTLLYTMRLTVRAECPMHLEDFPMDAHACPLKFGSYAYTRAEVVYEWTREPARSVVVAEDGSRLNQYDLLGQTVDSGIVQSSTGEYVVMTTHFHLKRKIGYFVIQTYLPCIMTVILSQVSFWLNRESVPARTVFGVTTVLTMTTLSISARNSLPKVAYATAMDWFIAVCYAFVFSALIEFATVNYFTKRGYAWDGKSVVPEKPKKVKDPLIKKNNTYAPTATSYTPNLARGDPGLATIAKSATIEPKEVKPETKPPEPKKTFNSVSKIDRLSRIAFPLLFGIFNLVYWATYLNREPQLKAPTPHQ
T1 sequence (P28472 26-473 partner): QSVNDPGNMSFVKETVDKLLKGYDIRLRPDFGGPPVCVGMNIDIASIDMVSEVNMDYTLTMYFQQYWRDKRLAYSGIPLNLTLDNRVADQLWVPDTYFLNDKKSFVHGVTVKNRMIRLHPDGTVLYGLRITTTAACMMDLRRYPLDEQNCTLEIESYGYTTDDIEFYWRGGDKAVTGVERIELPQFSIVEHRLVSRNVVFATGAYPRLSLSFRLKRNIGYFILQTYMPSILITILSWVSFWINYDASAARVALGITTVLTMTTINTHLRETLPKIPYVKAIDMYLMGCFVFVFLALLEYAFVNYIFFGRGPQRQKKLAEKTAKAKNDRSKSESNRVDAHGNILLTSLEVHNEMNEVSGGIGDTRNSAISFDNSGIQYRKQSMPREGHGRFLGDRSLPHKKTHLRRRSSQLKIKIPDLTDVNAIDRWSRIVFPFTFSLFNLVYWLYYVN
T1 sequence (P18507 40-475): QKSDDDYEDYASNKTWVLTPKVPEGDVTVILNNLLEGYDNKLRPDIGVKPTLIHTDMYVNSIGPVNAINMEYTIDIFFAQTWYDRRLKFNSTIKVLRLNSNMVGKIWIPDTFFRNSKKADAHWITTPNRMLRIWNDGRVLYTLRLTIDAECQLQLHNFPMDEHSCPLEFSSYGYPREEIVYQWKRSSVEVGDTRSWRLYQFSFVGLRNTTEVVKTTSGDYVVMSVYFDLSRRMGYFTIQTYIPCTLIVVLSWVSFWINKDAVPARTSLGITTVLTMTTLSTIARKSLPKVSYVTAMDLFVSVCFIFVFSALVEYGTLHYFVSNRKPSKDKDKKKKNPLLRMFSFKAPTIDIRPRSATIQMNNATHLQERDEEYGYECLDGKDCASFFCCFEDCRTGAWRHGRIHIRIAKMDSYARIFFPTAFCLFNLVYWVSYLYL
T2 sequence (P47869 29-451): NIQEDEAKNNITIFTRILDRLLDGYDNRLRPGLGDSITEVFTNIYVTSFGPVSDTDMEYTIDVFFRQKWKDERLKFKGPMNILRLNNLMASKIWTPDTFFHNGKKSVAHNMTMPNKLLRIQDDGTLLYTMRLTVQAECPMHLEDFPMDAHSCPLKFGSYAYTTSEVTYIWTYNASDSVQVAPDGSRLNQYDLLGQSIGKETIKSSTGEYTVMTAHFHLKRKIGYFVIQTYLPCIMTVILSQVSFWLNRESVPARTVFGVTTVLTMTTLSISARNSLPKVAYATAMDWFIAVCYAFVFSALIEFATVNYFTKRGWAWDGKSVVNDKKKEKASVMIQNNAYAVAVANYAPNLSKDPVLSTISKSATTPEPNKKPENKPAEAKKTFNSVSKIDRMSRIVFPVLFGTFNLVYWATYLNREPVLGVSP
T2 sequence (P28472 26-473 partner): as the sequence (P28472 26-473 partner) above
T2 sequence (P18507 40-475): as the sequence (P18507 40-475) above

## Clc1ccc(-c2nc3cccnn3c2Cn2cncn2)cc1 [Compound 32, 3-((1H-1,2,4-triazol-1-yl)methyl)-2-(4-chlorophenyl)imidazo[1,2-b]pyridazine]
Swiss Webster (CFW) mice; 3 mg/kg PO
  Number of Punished Crossings Mean ± S.E.M.: 6.6 ± 0.72
Swiss Webster (CFW) mice; 10 mg/kg PO
  Number of Punished Crossings Mean ± S.E.M.: 6.6 ± 0.67
Swiss Webster (CFW) mice; 30 mg/kg PO
  Number of Punished Crossings Mean ± S.E.M.: 5.7 ± 0.94
[1]
  activation at 0.1 µM: 10 to 50%
[2]
  activation at 0.1 µM: 10 to 50%

## NC(=O)c1ncn(Cc2c(-c3ccc(Cl)cc3)nc3ccccn23)n1 [Compound 72, 1-((2-(4-chlorophenyl)imidazo[1,2-a]pyridin-3-yl)methyl)-1H-1,2,4-triazole-3-carboxamide]
Swiss Webster (CFW) mice; 3 mg/kg PO
  Number of Punished Crossings Mean ± S.E.M.: 5.8 ± 0.63
Swiss Webster (CFW) mice; 10 mg/kg PO
  Number of Punished Crossings Mean ± S.E.M.: 5.2 ± 0.47
Swiss Webster (CFW) mice; 30 mg/kg PO
  Number of Punished Crossings Mean ± S.E.M.: 4.8 ± 0.36
[1]
  activation at 0.1 µM: 10 to 50%
[2]
  activation at 0.1 µM: ≥ 50%

## CNC(=O)c1nccn1Cc1c(-c2ccc(Cl)cc2)nc2ccccn12 [Compound 77, 1-((2-(4-chlorophenyl)H-imidazo[1,2-a]pyridin-3-yl)methyl)-N-methyl-1H-imidazole-2-carboxamide]
Swiss Webster (CFW) mice; 3 mg/kg PO
  Number of Punished Crossings Mean ± S.E.M.: 4.3 ± 0.26
Swiss Webster (CFW) mice; 10 mg/kg PO
  Number of Punished Crossings Mean ± S.E.M.: 4.6 ± 0.31
Swiss Webster (CFW) mice; 30 mg/kg PO
  Number of Punished Crossings Mean ± S.E.M.: 5.0 ± 0.37
[1]
  Percentage of potentiation alpha1: 0 (percentage of potentiation is between about 10% to about −10%)
[2]
  Percentage of potentiation alpha2: + (percentage of potentiation is greater than or equal to 10% but less than 50% in the presence of 100 nM of the compound)

## Cc1ccn(Cc2c(-c3ccc(Cl)cc3)nc3ccccn23)c(=O)n1 [Compound 105, 1-((2-(4-chlorophenyl)imidazo[1,2-a]pyridin-3-yl)methyl)-4-methylpyrimidin-2(1H)-one]
Swiss Webster (CFW) mice; 3 mg/kg PO
  Number of Punished Crossings Mean ± S.E.M.: 6.7 ± 0.34
Swiss Webster (CFW) mice; 10 mg/kg PO
  Number of Punished Crossings Mean ± S.E.M.: 5.5 ± 0.60
Swiss Webster (CFW) mice; 30 mg/kg PO
  Number of Punished Crossings Mean ± S.E.M.: 5.6 ± 0.52
[1]
  activation at 0.1 µM: 10 to 50%
[2]
  activation at 0.1 µM: 10 to 50%

## Cn1ncnc1Cc1c(-c2ccc(F)cc2)nc2ccc(F)cn12 [Compound 200, 6-fluoro-2-(4-fluorophenyl)-3-((1-methyl-1H-1,2,4-triazol-5-yl)methyl)imidazo[1,2-a]pyridine]
Swiss Webster (CFW) mice; 3 mg/kg PO
  Number of Punished Crossings Mean ± S.E.M.: 7.2 ± 0.52
Swiss Webster (CFW) mice; 10 mg/kg PO
  Number of Punished Crossings Mean ± S.E.M.: 8.6 ± 0.43
Swiss Webster (CFW) mice; 30 mg/kg PO
  Number of Punished Crossings Mean ± S.E.M.: 7.5 ± 0.39
[1]
  activation at 0.1 µM: 10 to 50%
[2]
  activation at 0.1 µM: ≥ 50%

## Clc1ccc(-c2nc3ccccn3c2Cc2ncn[nH]2)cc1 [Compound 211, 3-((1H-1,2,4-triazol-5-yl)methyl)-2-(4-chlorophenyl)imidazo[1,2-a]pyridine]
Swiss Webster (CFW) mice; 3 mg/kg PO
  Number of Punished Crossings Mean ± S.E.M.: 7.8 ± 0.59
Swiss Webster (CFW) mice; 10 mg/kg PO
  Number of Punished Crossings Mean ± S.E.M.: 8.6 ± 0.85
Swiss Webster (CFW) mice; 30 mg/kg PO
  Number of Punished Crossings Mean ± S.E.M.: 8.9 ± 0.57
[1]
  activation at 0.1 µM: 10 to 50%
[2]
  activation at 0.1 µM: ≥ 50%
